What was measured:
[1] = target: T1, human melatonin ML1a receptor (Homo sapiens, UniProt P48039); assay: Melatonergic receptor binding activity (2-[125I]-iodomelatonin binding, membranes of NIH-3T3 cells expressing ML1a); conditions: 37° C. for 1 hour, read-out: Melatonin Binding Affinity (IC50)
T1 construct: expressed in transfected cells; membrane homogenates
Method: Melatonergic Receptor Binding Activity
(a) TME=50 mM Tris buffer containing 12.5 mM MgCl2, and 2 mM EDTA, pH 7.4 at 37° C. with concentrated HCl.
(b) Wash buffer: 20 mM Tris base containing 2 mM MgCl2, pH 7.4 at room temperature.
(c) 10^-4 M melatonin (10^-5 M final concentration).
(d) 2-[^125 I]-iodomelatonin, 0.1 M final concentration
The melatonin ML1a receptor cDNA was subcloned into pcDNA3 and introduced into NIH-3T3 cells using Lipofectamine. Transformed NIH-3T3 cells resistant to geneticin (G-418) were isolated, and single colonies expressing high levels of 2[^125 I]-iodomelatonin binding were isolated. Cells are maintained in DMEM supplemented with 10% calf serum and G-418 (0.5 g/liter). Cells are grown to confluency in T-175 flasks, scraped using Hank's balanced salt solution, and frozen at -80° C. For preparing membrane homogenates, pellets are thawed on ice, and resuspended in TME buffer in the presence of 10 μg/ml aprotinin and leupeptin, and 100 ,μM phenylmethylsulfonylfluoride. The cells were then homogenized using a dounce homogenizer, and centrifuged. The resulting pellet was resuspended with dounce homogenizer in TME (supplemented with the above protease inhibitors) and frozen. On the day of assay, the small aliquot was thawed on ice and resuspended in ice cold TME (1:50-1:100 v/v) and held on ice until assayed.
37° C. for 1 hour. Reaction is terminated by filtration. Filters are washed 3 times.
^a = IC50 values for ML1a human melatonin receptor binding

[2] = test system: circadian rhythms in rats; conditions: cited from earlier work

T1 sequence (P48039 whole entry): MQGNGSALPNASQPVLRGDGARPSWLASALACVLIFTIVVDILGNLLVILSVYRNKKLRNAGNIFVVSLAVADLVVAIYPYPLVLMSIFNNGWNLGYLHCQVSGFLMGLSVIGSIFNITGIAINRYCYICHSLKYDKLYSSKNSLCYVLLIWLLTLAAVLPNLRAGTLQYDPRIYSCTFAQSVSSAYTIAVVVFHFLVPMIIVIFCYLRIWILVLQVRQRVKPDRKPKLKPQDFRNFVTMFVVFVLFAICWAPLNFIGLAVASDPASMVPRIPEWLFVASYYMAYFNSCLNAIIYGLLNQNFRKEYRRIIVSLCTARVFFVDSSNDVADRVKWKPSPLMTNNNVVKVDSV

| Structure (SMILES) | IC50 [1] [nM] | effect of exogenous melatonin administration on circadian rhythms [2] |
| --- | --- | --- |
| CCC(=O)N[C@@H]1CCN(c2cccc3c2CCO3)C1 [Example 4, (R)-N-[N-(2,3-dihydrobenzofuran-4-yl)-pyrrolidin-3-yl]propanamide] | 10 to 200 |  |
| O=C(N[C@@H]1CCN(c2cccc3c2CCO3)C1)C1CC1 [Example 10, (R)-N-[N-(2,3-dihydrobenzofuran-4-yl)-pyrrolidin-3-yl]cyclopropane carboxamide] | < 10 |  |
| COCC(=O)N[C@H]1CCN(c2cccc3c2CCO3)C1 [Example 11, (S)-N-[N-(2,3-dihydrobenzofuran-4-yl)-pyrrolidin-3-yl]methoxyacetamide] | < 10 |  |
| CCC(=O)N[C@H]1CCN(c2cccc3c2CCCO3)C1 [Example 13, (S)-N-[N-(2H-2,3-dihydrobenzopyran-5-yl)-pyrrolidin-3-yl]propanamide] | < 10 |  |
| CC(=O)N[C@H]1CCN(c2cccc3c2OCCO3)C1 [Example 14, (S)-N-[N-(2,3-dihydro-1,4-benzodioxin-5-yl)-pyrrolidin-3-yl]acetamide] | 10 to 200 |  |
| CCNC(=O)N[C@H]1CCN(c2cccc3c2CCO3)C1 [Example 20, (S)-N-[N-(2,3-dihydrobenzofuran-4-yl)-pyrrolidin-3-yl]-N'-ethyl urea] | < 10 |  |
| CCNC(=O)N[C@@H]1CCN(c2cccc3c2CCO3)C1 [Example 21, (R)-N-[N-(2,3-dihydrobenzofuran-4-yl)-pyrrolidin-3-yl]-N'-ethyl urea] | < 10 |  |
| CCNC(=O)N[C@H]1CCN(c2cccc3c2OCCO3)C1 [Example 28, (S)-N-[N-(2,3-dihydro-1,4-benzodioxin-5-yl)-pyrrolidin-3-yl]-N'-ethyl urea] | 10 to 200 |  |
| O=C(NC1CC1)N[C@@H]1CCN(c2cccc3c2CCO3)C1 [Example 30, (R)-N-[N-(2,3-Dihydrobenzofuran-4-yl)-Pyrrolidin-3-yl]-N'-Cylopropyl Urea] | 10 to 200 |  |
| CN(C)C(=O)N[C@H]1CCN(c2cccc3c2CCO3)C1 [Example 32, (S)-N-[N-(2,3-dihydrobenzofuran-4-yl)-pyrrolidin-3-yl]-N',N'-dimethyl urea] | 10 to 200 |  |
| CC(=O)N[C@H]1CCN(c2c(Cl)cc(Cl)c3c2CCO3)C1 [Example 35, (S)-N-[N-(5,7-Dichloro-2,3-Dihydrobenzofuran-4-yl)-Pyrrolidin-3-yl]Acetamide] | < 10 |  |
| CCCC(=O)N[C@H]1CCN(c2c(Cl)ccc3c2CCO3)C1 [Example 36, (S)-N-[N-(5-chloro-2,3-dihydrobenzofuran-4-yl)-pyrrolidin-3-yl]butyramide] | < 10 |  |
| COc1ccc2[nH]cc(CCNC(C)=O)c2c1 [melatonin, N-acetyl-5-methoxytryptamine] |  | synchronize circadian rhythms in rats |

From US6211225A, “Heterocyclic aminopyrrolidine derivatives as melatonergic agents” (Bristol-Meyers Squibb, priority 2000, dated 2001)
